From article PMC6017454, “A Xylenol Orange-Based Screening Assay for the Substrate Specificity of Flavin-Dependent para-Phenol Oxidases” (Molecules : A Journal of Synthetic Chemistry and Natural …, 2018)

What was measured:
[1] = biological target: T1, His-VAO (vanillyl alcohol oxidase) (Penicillium simplicissimum, UniProt P56216); assay: flavin absorption spectrum; trichloroacetic acid precipitation; format: binding; details: covalent; co-purified
T1 construct: gene VAOA; N-terminal 6xHis tag plus single Gly, tag kept; codon-optimised, E. coli BL21; covalent FAD; VAO predominantly octameric
T1 sequence (P56216 whole entry): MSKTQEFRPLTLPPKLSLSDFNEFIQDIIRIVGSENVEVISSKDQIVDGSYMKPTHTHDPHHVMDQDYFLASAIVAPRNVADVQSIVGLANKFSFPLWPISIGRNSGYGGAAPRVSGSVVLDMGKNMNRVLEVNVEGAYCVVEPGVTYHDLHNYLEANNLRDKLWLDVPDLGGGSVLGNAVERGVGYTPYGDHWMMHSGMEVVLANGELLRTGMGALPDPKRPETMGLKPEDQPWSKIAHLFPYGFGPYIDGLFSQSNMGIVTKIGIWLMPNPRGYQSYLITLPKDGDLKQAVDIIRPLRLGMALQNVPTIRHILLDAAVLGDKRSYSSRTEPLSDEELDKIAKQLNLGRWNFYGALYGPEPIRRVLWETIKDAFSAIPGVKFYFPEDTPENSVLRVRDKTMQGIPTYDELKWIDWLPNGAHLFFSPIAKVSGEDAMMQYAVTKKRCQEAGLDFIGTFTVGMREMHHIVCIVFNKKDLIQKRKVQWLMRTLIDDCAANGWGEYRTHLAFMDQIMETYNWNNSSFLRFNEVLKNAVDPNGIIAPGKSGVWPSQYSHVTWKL

[2] = biological target: T2, EUGO-His (eugenol oxidase) (Rhodococcus jostii, UniProt Q0SBK1); assay: as above; format: binding; details: covalent; co-purified
T2 construct: gene RHA1_ro03282; E. coli TOP10; covalent FAD; EUGO dimeric
T2 sequence (Q0SBK1 1-526): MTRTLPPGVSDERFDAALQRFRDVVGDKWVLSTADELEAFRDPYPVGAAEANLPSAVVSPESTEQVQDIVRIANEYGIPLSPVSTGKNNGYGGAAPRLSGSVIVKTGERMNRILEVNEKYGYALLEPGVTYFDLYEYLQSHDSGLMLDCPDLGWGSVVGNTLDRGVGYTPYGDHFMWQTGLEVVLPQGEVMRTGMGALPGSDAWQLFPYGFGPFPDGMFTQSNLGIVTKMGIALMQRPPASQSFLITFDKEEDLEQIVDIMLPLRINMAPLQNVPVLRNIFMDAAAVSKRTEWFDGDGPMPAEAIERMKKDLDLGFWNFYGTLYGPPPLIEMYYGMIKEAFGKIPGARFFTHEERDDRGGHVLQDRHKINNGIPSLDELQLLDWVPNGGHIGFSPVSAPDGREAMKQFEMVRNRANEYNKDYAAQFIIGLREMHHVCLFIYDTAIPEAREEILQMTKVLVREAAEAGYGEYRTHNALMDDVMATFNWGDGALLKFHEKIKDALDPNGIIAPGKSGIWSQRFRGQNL

Cc1cc2nc3c(=O)[nH]c(=O)nc-3n(C[C@H](O)[C@H](O)[C@H](O)COP(=O)(O)OP(=O)(O)OC[C@H]3O[C@@H](n4cnc5c(N)ncnc54)[C@H](O)[C@@H]3O)c2cc1C [FAD]
flavin absorption spectrum; trichloroacetic acid precipitation [1]: demonstrating that the flavin cofactor is covalently bound to the protein
flavin absorption spectrum; trichloroacetic acid precipitation [2]: demonstrating that the flavin cofactor is covalently bound to the protein
